Assay: Toxicity in iv dosed Swiss-Webster mouse
Format: organism-based
Conditions: in vivo

Compound | LD50 [mg/kg]
CCN1C[C@]2(CO)CC[C@H](OC)[C@@]34[C@@H]5C[C@H]6[C@H](OC)[C@@H]5[C@](O)(C[C@@H]6OC)[C@](O)([C@@H](OC)[C@H]23)[C@@H]14 [LYCOCTONINE] | 444
CCN1C[C@]2(COC(=O)c3ccccc3N3C(=O)CC(C)C3=O)CC[C@H](OC)[C@]34C1[C@](O)([C@@H](OC)[C@H]23)[C@@]1(O)C[C@H](OC)[C@H]2C[C@@H]4[C@@H]1[C@H]2O (stereo partly drawn) | 4
CO[C@H]1[C@@H]2C[C@@H]3[C@H]1[C@](O)(C[C@@H]2OC)[C@]1(O)C2N=C[C@]4(COC(=O)c5ccccc5N5C(=O)CC(C)C5=O)CC[C@H](OC)[C@@]23[C@@H]4[C@@H]1OC (stereo partly drawn) [ANHWEIDELPHININE] | > 177
CCN1C[C@]2(COC(=O)c3ccccc3N3C(=O)C[C@H](C)C3=O)CC[C@H](OC)[C@@]34C1[C@@]1(OCO[C@@]15C[C@H](OC)[C@H]1C[C@@H]3[C@@H]5[C@H]1OC)[C@@H](OC)[C@H]24 [ELATINE] | 9.2
CCN1C[C@]2(COC(=O)c3ccccc3N)CC[C@H](OC)[C@]34C1[C@](O)([C@@H](OC)[C@H]23)[C@@]1(O)C[C@H](OC)[C@H]2C[C@@H]4[C@@H]1[C@H]2OC [ANTHRANOYLLYCOCTONINE] | 20.8
CO[C@H]1[C@@H]2C[C@@H]3[C@H]1[C@](O)(C[C@@H]2OC)[C@]1(O)C2NC(=O)[C@]4(COC(=O)c5ccccc5N5C(=O)CC(C)C5=O)CC[C@H](OC)[C@@]23[C@@H]4[C@@H]1OC (stereo partly drawn) [ZALILINE] | > 230
CCN1C[C@]2(COC(=O)c3ccccc3N3C(=O)C[C@H](C)C3=O)CC[C@H](OC)[C@@]34[C@@H]5C[C@H]6[C@H](OC)[C@@H]5[C@](O)(C[C@@H]6OC)[C@](O)([C@@H](OC)[C@H]23)[C@@H]14 [METHYLLYCACONITINE] | 7.5
CO[C@H]1[C@@H]2C[C@]3(O)[C@H]1[C@@]1(C[C@@H]2OC)OCO[C@]12C1NC[C@]4(C)CC[C@H](OC)[C@@]13[C@@H]4[C@@H]2OC(C)=O | 210
CO[C@H]1[C@@H]2C[C@@H]3[C@H]1[C@](O)(C[C@@H]2OC)[C@]1(O)C2NC[C@]4(COC(=O)c5ccccc5N5C(=O)CC(C)C5=O)CC[C@H](OC)[C@@]23[C@@H]4[C@@H]1OC (stereo partly drawn) | 100
CCN1C[C@]2(C)CC[C@H](OC)[C@@]34C1[C@]1(OCO[C@@]15C[C@H](OC)[C@H]1C[C@]3(O)[C@@H]5[C@H]1OC)[C@@H](OC(C)=O)[C@H]24 [DELTALINE] | 200
CCN1C[C@]2(COC(=O)c3ccccc3N3C(=O)C[C@H](C)C3=O)CC[C@H](OC)[C@]34C5C[C@@H]6[C@@H](OC)C[C@@](O)(C5[C@H]6OC(C)=O)[C@](O)(C13)[C@@H](OC)C24 (stereo partly drawn) [NUDICAULINE] | 2.7
CCN1C[C@]2(COC(=O)c3ccccc3N3C(=O)CC(C)C3=O)CC[C@H](OC)[C@]34C1[C@](O)([C@@H](OC)[C@H]23)[C@@]1(O)C[C@H](OC)[C@H]2C[C@@H]4[C@@H]1C2=O (stereo partly drawn) [BARBININE] | 57
CCN1C[C@]2(C)CC[C@H](OC)[C@@]34C1[C@]1(OCO[C@@]15C[C@H](OC)[C@H]1C[C@]3(O)[C@@H]5[C@H]1O)[C@@H](OC(C)=O)[C@H]24 [DICTYOCARPINE] | 283

Source: ChEMBL document CHEMBL1148100, “Structure-activity relationships of norditerpenoid alkaloids occurring in toxic larkspur (Delphinium) species” (J Nat Prod, 1995)
